From patent publication US11420958B2, “Aryl and heteroaryl substituted indole compounds” (BRISTOL-MYERS SQUIBB COMPANY, priority 2017, dated 2022)

Tests used:
Type in all cases: cell-based
human TLR7 = human TLR7 (Homo sapiens (Human), UniProt Q9NYK1); assay: TLR7 inhibition reporter assay (HEK-Blue, SEAP); conditions: HEK-Blue cells overexpressing human TLR7, gardiquimod 7.5 μM stimulation
How it was run: (§1)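 SEAP read-out via detection medium after 22 h at 37 °C, 5% CO2; percent inhibition relative to agonist-plus-DMSO and known-inhibitor wells. Agonists: TLR7 gardiquimod 7.5 μM, TLR8 R848 15.9 μM, TLR9 ODN2006 5 nM (final). Compound range 0.05 nM–50 μM, 30 min pre-treatment.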

human TLR8 = human TLR8 (Homo sapiens (Human), UniProt Q9NR97); assay: TLR8 inhibition reporter assay (HEK-Blue, SEAP); conditions: HEK-Blue cells overexpressing human TLR8, R848 15.9 μM stimulation
How it was run: as §1

human TLR9 = human TLR9 (Homo sapiens (Human), UniProt Q9NR96); assay: TLR9 inhibition reporter assay (HEK-Blue, SEAP); conditions: HEK-Blue cells overexpressing human TLR9, ODN2006 5 nM stimulation
How it was run: as §1

Sequence of human TLR7 (Q9NYK1 27-1049): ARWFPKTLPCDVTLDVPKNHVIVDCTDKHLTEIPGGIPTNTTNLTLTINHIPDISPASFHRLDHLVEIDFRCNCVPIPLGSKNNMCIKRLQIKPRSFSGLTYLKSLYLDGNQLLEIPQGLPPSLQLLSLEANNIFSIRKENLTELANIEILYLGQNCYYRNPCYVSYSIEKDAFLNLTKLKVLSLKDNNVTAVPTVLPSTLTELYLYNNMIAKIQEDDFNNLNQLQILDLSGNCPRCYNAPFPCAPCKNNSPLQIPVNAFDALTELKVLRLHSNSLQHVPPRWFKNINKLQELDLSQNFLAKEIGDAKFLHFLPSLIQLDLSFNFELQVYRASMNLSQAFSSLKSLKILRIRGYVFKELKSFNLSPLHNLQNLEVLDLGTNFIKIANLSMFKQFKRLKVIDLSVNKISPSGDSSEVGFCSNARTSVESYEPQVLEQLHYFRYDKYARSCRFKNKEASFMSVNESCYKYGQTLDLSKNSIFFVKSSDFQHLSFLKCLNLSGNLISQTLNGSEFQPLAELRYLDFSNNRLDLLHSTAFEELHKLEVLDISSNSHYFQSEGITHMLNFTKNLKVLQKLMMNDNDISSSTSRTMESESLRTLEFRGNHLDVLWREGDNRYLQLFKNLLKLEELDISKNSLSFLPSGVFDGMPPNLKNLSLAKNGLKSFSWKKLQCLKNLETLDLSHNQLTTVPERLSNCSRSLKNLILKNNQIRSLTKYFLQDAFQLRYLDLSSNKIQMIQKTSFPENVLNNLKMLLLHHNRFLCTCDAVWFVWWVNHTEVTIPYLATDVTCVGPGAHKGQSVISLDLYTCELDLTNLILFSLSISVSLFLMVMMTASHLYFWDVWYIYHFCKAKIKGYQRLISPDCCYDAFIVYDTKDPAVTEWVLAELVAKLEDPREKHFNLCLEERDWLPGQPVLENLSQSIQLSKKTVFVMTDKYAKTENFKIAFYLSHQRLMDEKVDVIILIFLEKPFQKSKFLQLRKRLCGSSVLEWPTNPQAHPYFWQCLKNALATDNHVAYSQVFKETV
Sequence of human TLR9 (Q9NR96 26-1032): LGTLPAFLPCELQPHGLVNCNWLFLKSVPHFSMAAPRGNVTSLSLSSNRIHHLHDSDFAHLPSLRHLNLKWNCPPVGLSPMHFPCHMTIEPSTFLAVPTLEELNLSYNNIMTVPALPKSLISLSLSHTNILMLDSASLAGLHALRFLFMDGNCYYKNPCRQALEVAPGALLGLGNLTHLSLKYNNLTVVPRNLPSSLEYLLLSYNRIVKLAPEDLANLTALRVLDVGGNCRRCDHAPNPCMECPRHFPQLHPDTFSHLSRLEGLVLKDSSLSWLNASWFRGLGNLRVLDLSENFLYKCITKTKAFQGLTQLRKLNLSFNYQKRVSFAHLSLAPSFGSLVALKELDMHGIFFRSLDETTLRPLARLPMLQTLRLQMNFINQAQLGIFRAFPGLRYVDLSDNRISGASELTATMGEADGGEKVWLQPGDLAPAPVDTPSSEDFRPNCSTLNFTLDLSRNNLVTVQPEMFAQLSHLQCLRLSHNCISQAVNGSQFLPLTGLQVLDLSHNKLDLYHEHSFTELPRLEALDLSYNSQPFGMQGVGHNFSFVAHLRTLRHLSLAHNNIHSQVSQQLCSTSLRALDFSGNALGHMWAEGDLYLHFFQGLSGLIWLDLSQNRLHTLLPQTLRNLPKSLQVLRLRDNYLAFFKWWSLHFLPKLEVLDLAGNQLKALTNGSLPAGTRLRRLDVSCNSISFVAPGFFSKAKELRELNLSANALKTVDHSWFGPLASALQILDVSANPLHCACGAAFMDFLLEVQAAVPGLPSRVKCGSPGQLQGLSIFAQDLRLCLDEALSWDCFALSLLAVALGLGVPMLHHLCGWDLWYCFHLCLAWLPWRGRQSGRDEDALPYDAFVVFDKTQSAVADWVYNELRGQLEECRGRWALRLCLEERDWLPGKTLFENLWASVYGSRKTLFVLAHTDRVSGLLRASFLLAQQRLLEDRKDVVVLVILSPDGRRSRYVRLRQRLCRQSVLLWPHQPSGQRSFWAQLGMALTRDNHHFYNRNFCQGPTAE
Sequence of human TLR8 (Q9NR97 27-1041): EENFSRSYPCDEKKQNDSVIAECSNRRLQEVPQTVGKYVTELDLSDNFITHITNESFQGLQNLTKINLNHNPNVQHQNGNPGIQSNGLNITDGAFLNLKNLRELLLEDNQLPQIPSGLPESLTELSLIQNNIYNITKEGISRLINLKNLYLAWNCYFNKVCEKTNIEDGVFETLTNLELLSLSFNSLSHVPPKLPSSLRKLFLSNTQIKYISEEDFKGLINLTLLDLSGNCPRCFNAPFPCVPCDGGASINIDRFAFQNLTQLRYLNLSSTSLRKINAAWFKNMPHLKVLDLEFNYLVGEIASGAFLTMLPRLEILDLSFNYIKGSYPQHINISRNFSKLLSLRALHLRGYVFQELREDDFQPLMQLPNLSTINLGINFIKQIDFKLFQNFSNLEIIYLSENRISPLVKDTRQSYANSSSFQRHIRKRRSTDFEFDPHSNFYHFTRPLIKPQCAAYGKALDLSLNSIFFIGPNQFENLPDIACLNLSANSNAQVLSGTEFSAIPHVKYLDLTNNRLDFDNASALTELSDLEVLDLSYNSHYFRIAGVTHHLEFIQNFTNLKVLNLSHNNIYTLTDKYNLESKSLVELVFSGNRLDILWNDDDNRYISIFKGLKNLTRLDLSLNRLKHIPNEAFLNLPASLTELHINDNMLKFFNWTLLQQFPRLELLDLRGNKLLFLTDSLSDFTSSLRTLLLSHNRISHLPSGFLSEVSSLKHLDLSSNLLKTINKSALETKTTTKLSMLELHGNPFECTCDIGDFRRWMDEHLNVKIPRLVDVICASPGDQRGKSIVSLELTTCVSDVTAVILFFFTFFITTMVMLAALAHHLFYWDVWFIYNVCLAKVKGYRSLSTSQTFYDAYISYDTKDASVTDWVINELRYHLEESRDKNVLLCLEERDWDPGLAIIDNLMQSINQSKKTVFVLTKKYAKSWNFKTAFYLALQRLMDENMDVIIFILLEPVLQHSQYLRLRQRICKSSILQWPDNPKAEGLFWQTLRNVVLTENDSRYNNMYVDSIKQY

IC50 (human TLR7) [µM]	IC50 (human TLR8) [µM]	IC50 (human TLR9) [µM]	Compound
0.604	0.096	8.43	COc1ccc(-c2[nH]c3ccc(-c4cccc(N5CCNCC5)c4)cc3c2C(C)C)cc1OC [Example 411, 2-(3,4-dimethoxyphenyl)-3-isopropyl-5-(3-(piperazin-1-yl)phenyl)-1H-indole]
0.034	0.026	> 50	COc1ccc(-c2[nH]c3ccc(-c4ccc(OCCN5CCCC5)cc4)cc3c2C(C)C)cc1OC [Example 412, 2-(3,4-dimethoxyphenyl)-3-isopropyl-5-(4-(2-(pyrrolidin-1-yl)ethoxy)phenyl)-1H-indole]
0.44	0.038	> 50	COc1ccc(-c2[nH]c3ccc(-c4ccc(CN5CCOCC5)cc4)cc3c2C(C)C)cc1OC [Example 413, 4-(4-(2-(3,4-dimethoxyphenyl)-3-isopropyl-1H-indol-5-yl)benzyl)morpholine]
2.29	0.071	> 50	COc1ccc(-c2[nH]c3ccc(-c4ccc(N5CCOCC5)nc4)cc3c2C(C)C)cc1OC [Example 416, 4-(5-(2-(3,4-dimethoxyphenyl)-3-isopropyl-1H-indol-5-yl)pyridin-2-yl)morpholine]
0.049	0.0068	1.22	COc1ccc(-c2[nH]c3ccc(-c4ccc(N5CCNCC5)nc4)cc3c2C(C)C)cc1OC [Example 417, 2-(3,4-dimethoxyphenyl)-3-isopropyl-5-(6-(piperazin-1-yl)pyridin-3-yl)-1H-indole]
0.879	0.041	3.54	COc1ccc(-c2[nH]c3ccc(-c4cnc(N5CCN(CC(C)C)CC5)cc4C)cc3c2C(C)C)cc1OC [Example 418, 2-(3,4-dimethoxyphenyl)-5-(6-(4-isobutylpiperazin-1-yl)-4-methylpyridin-3-yl)-3-isopropyl-1H-indole]
0.05	0.014	1.39	COc1ccc(-c2[nH]c3ccc(-c4cnc(N5CCNCC5)cc4C)cc3c2C(C)C)cc1OC [Example 419, 2-(3,4-dimethoxyphenyl)-3-isopropyl-5-(4-methyl-6-(piperazin-1-yl)pyridin-3-yl)-1H-indole]
0.334	0.0047	0.693	COc1ccc(-c2[nH]c3ccc(-c4cnc(N5CCN(C(C)C)CC5)cc4C)cc3c2C(C)C)cc1OC [Example 420, 2-(3,4-dimethoxyphenyl)-3-isopropyl-5-(6-(4-isopropylpiperazin-1-yl)-4-methylpyridin-3-yl)-1H-indole]
0.838	0.056	1.45	COc1ccc(-c2[nH]c3ccc(-c4ccnc(N5CCN(C6CCCC6)CC5)c4)cc3c2C(C)C)cc1OC [Example 426, 5-(2-(4-cyclopentylpiperazin-1-yl)pyridin-4-yl)-2-(3,4-dimethoxyphenyl)-3-isopropyl-1H-indole]
0.96	0.056	2.53	COc1ccc(-c2[nH]c3ccc(-c4ccnc(N5CCN(C6CCC6)CC5)c4)cc3c2C(C)C)cc1OC [Example 427, 5-(2-(4-cyclobutylpiperazin-1-yl)pyridin-4-yl)-2-(3,4-dimethoxyphenyl)-3-isopropyl-1H-indole]
0.145	0.031	3.3	COc1ccc(-c2[nH]c3ccc(-c4cnc(N5CCN(CCC(C)O)CC5)nc4)cc3c2C(C)C)cc1OC (stereo not drawn) [Example 431, 4-(4-(5-(2-(3,4-dimethoxyphenyl)-3-isopropyl-1H-indol-5-yl)pyrimidin-2-yl)piperazin-1-yl)butan-2-ol]
0.065	0.017	3.24	COc1ccc(-c2[nH]c3ccc(-c4cnc(N5CCN(C)CC5)nc4)cc3c2C(C)C)cc1OC [Example 432, 2-(3,4-dimethoxyphenyl)-3-isopropyl-5-(2-(4-methylpiperazin-1-yl)pyrimidin-5-yl)-1H-indole]
1.55	0.241	3.65	COc1ccc(-c2[nH]c3ccc(-c4cnc(N5CCN(C6CCCC6)CC5)nc4)cc3c2C(C)C)cc1OC [Example 435, 5-(2-(4-cyclopentylpiperazin-1-yl)pyrimidin-5-yl)-2-(3,4-dimethoxyphenyl)-3-isopropyl-1H-indole]
1.49	0.331	11.1	COc1ccc(-c2[nH]c3ccc(-c4cnc(N5CCN(C6CCC6)CC5)nc4)cc3c2C(C)C)cc1OC [Example 436, 5-(2-(4-cyclobutylpiperazin-1-yl)pyrimidin-5-yl)-2-(3,4-dimethoxyphenyl)-3-isopropyl-1H-indole]

Continued, compound first:

Compound	IC50 (human TLR7) [µM]	IC50 (human TLR8) [µM]	IC50 (human TLR9) [µM]
COc1ccc(-c2[nH]c3ccc(-c4ccc(C5=CCNCC5)cc4)cc3c2C)cc1OC [Example 408, 2-(3,4-dimethoxyphenyl)-3-methyl-5-(4-(1,2,3,6-tetrahydropyridin-4-yl)phenyl)-1H-indole]	8.62	> 50	0.729
COc1ccc(-c2[nH]c3ccc(-c4cccc(-c5ccc6nonc6c5)c4)cc3c2C(C)C)cc1OC [Example 409, 5-(3-(2-(3,4-dimethoxyphenyl)-3-isopropyl-1H-indol-5-yl)phenyl)benzo[c][1,2,5]oxadiazole]	1.28	0.429	> 50
COc1ccc(-c2[nH]c3ccc(-c4ccc(OC5CCNCC5)cc4)cc3c2C(C)C)cc1OC [Example 410, 2-(3,4-dimethoxyphenyl)-3-isopropyl-5-(4-(piperidin-4-yloxy)phenyl)-1H-indole]	0.274	0.055	4.91
CC(C)c1c(-c2ccnc3[nH]ncc23)[nH]c2ccc(-c3cccc(CO)c3)cc12 [Example 414, (3-(3-isopropyl-2-(1H-pyrazolo[3,4-b]pyridin-4-yl)-1H-indol-5-yl)phenyl)methanol]	0.771	0.063	> 50
CC(C)c1c(-c2ccnc3[nH]ncc23)[nH]c2ccc(-c3cccc(S(N)(=O)=O)c3)cc12 [Example 415, 3-(3-isopropyl-2-(1H-pyrazolo[3,4-b]pyridin-4-yl)-1H-indol-5-yl)benzenesulfonamide]	0.82	0.056	> 50
COc1ccc(-c2[nH]c3ccc(-c4ccc(OCCCN(C)C)nc4)cc3c2C(C)C)cc1OC [Example 421, 3-((5-(2-(3,4-dimethoxyphenyl)-3-isopropyl-1H-indol-5-yl)pyridin-2-yl)oxy)-N,N-dimethylpropan-1-amine]	0.063	0.012	2.75
CC(C)c1c(-c2ccnc3[nH]ncc23)[nH]c2ccc(-c3ccnn3C)cc12 [Example 428, 4-(3-isopropyl-5-(1-methyl-1H-pyrazol-5-yl)-1H-indol-2-yl)-1H-pyrazolo[3,4-b]pyridine]	0.194	0.012	14.5
COc1cc(-c2ccc3[nH]c(-c4ccnc5[nH]ncc45)c(C(C)C)c3c2)cnc1OC [Example 434, 4-(5-(5,6-dimethoxypyridin-3-yl)-3-isopropyl-1H-indol-2-yl)-1H-pyrazolo[3,4-b]pyridine]	0.124	0.054	45.2
CC(C)c1c(-c2ccnc3[nH]ncc23)[nH]c2ccc(-c3c[nH]nc3C(F)(F)F)cc12 [Example 438, 4-(3-isopropyl-5-(3-(trifluoromethyl)-1H-pyrazol-4-yl)-1H-indol-2-yl)-1H-pyrazolo[3,4-b]pyridine]	0.947	0.01	38
CC(C)c1c(-c2ccnc3[nH]ncc23)[nH]c2ccc(-c3noc(C[C@@H]4CCCN4)n3)cc12 [Example 439, (S)-3-(3-isopropyl-2-(1H-pyrazolo[3,4-b]pyridin-4-yl)-1H-indol-5-yl)-5-(pyrrolidin-2-ylmethyl)-1,2,4-oxadiazole]	0.134	0.0033	2.14
CCc1c(-c2ccc(OC)c(OC)c2)[nH]c2ccc(-c3noc([C@@H](N)Cc4c[nH]cn4)n3)cc12 [Example 440, (S)-1-(3-(2-(3,4-dimethoxyphenyl)-3-ethyl-1H-indol-5-yl)-1,2,4-oxadiazol-5-yl)-2-(1H-imidazol-4-yl)ethan-1-amine]	0.647	0.123	19.9
CCc1c(-c2ccc(OC)c(OC)c2)[nH]c2ccc(-c3noc(C4CC(=O)N(C)C4)n3)cc12 (stereo not drawn) [Example 441, 4-(3-(2-(3,4-dimethoxyphenyl)-3-ethyl-1H-indol-5-yl)-1,2,4-oxadiazol-5-yl)-1-methylpyrrolidin-2-one]	3.29	0.356	> 50
CCc1c(-c2ccc(OC)c(OC)c2)[nH]c2ccc(-c3noc([C@H]4CCC[C@@]4(C)N)n3)cc12 [Example 442, (1R,2S)-2-(3-(2-(3,4-dimethoxyphenyl)-3-ethyl-1H-indol-5-yl)-1,2,4-oxadiazol-5-yl)-1-methylcyclopentan-1-amine]	0.903	0.09	4.58
CCc1c(-c2ccc(OC)c(OC)c2)[nH]c2ccc(-c3noc(C4CCN(Cc5ccccc5)C4)n3)cc12 (stereo not drawn) [Example 443, 5-(1-benzylpyrrolidin-3-yl)-3-(2-(3,4-dimethoxyphenyl)-3-ethyl-1H-indol-5-yl)-1,2,4-oxadiazole]	3.28	0.74	10.3
CCc1c(-c2ccc(OC)c(OC)c2)[nH]c2ccc(-c3noc(C4CCN(Cc5ccccc5)CC4)n3)cc12 [Example 444, 5-(1-benzylpiperidin-4-yl)-3-(2-(3,4-dimethoxyphenyl)-3-ethyl-1H-indol-5-yl)-1,2,4-oxadiazole]	3.13	0.443	11.2
